Measured values reported in patent US11161837B2, “Benzofuran derivatives for the treatment of hepatitis C” (BRISTOL-MYERS SQUIBB COMPANY, priority 2016, dated 2021).

Assays:
[1] = tested on: genotype 1b (Con-1) HCV replicon in Huh-7 cells; test: HCV replicon luciferase assay; format: cell-based; settings: 1b replicon, Huh-7, Renilla luciferase, 3 days incubation
Procedure: The cell lines used to evaluate compounds consist of a human hepatocyte derived cell line (Huh-7) that constitutively expresses a genotype 1b (Con-1) HCV replicon or a genotype 1b (Con-1) HCV replicon with an asparagine replacing the cysteine at amino acid 316, or a genotype 2a (JFH-1) replicon, containing a Renilla luciferase reporter gene. These cells were maintained in Dulbecco's modified Eagle medium (DMEM) containing 10% FBS, 100 U/mL penicillin/streptomycin and 1.0 mg/mL G418.
HCV Replicon Luciferase Assay.
To evaluate compound efficacy, titrated compounds were transferred to sterile 384-well tissue culture treated plates, and the plates were seeded with HCV replicon cells (50 μL at a density of 2.4×10^3 cells/well) in DMEM containing 4% FBS (final DMSO concentration at 0.5%). After 3 days incubation at 37° C., cells were analyzed for Renilla Luciferase activity using the EnduRen substrate (Promega cat # E6485) according to the manufacturer's directions. Briefly, the EnduRen substrate was diluted in DMEM and then added to the plates to a final concentration of 7.5 μM. The plates were incubated for at least 1 h at 37° C. then read on a Viewlux Imager (PerkinElmer) using a luminescence program. The 50% effective concentration (EC50) was calculated using the four-parameter logistic formula noted above.

[2] = molecular target: T1, NS5B proteins of HCV genotype 1b (Con1) (Hepatitis C virus genotype 1b, UniProt Q9WMX2); test: HCV NS5B RdRp enzyme assay; format: biochemical; settings: 1b enzyme
T1 construct: Each untagged protein was expressed with an 18 amino acid C-terminal truncation to enhance the solubility; made in house; host or cells: E. coli BL21(DE3), pET21a
T1 sequence (Q9WMX2 2420-2992): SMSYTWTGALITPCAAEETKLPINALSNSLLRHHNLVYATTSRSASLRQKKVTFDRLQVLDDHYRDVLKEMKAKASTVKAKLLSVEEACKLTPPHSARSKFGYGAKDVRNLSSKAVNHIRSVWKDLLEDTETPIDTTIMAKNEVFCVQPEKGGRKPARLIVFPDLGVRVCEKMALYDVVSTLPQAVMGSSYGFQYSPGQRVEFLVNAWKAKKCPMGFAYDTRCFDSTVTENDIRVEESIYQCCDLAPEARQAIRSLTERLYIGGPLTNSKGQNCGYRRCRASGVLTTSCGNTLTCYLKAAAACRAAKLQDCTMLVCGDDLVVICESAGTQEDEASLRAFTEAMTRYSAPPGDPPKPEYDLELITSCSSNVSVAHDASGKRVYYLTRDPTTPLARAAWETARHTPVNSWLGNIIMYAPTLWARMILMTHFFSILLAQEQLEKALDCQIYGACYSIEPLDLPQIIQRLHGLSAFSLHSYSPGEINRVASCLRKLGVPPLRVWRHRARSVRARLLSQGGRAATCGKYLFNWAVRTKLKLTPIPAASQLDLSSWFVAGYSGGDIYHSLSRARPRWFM
Procedure: HCVNS5B RdRp Cloning, Expression, and Purification.
The cDNA encoding NS5B proteins of HCV genotype 1b (Con1), a genotype 1b variant with amino acid 316 mutated from cysteine to asparagine, and genotype 2a (JFH-1), were cloned into the pET21a expression vector. Each untagged protein was expressed with an 18 amino acid C-terminal truncation to enhance the solubility. The E. coli competent cell line BL21(DE3) was used for expression of the protein. Cultures were grown at 37° C. for ˜4 hours until the cultures reached an optical density of 2.0 at 600 nm. The cultures were cooled to 20° C. and induced with 1 mM IPTG. Fresh ampicillin was added to a final concentration of 50 μg/mL and the cells were grown overnight at 20° C.
Cell pellets (3 L) were lysed for purification to yield 15-24 mgs of purified NS5B. The lysis buffer consisted of 20 mM Tris-HCl, pH 7.4, 500 mM NaCl, 0.5% triton X-100, 1 mM DTT, 1 mM EDTA, 20% glycerol, 0.5 mg/mL lysozyme, 10 mM MgCl2, 15 ug/mL deoxyribonuclease I, and Complete TM protease inhibitor tablets (Roche). After addition of the lysis buffer, frozen cell pellets were resuspended using a tissue homogenizer. To reduce the viscosity of the sample, aliquots of the lysate were sonicated on ice using a microtip attached to a Branson sonicator. The sonicated lysate was centrifuged at 100,000×g for 30 minutes at 4° C. and filtered through a 0.2 μm filter unit (Corning).
The protein was purified using two sequential chromatography steps: Heparin sepharose CL-6B and polyU sepharose 4B. The chromatography buffers were identical to the lysis buffer but contained no lysozyme, deoxyribonuclease I, MgCl2 or protease inhibitor and the NaCl concentration of the buffer was adjusted according to the requirements for charging the protein onto the column. Each column was eluted with a NaCl gradient which varied in length from 5-50 column volumes depending on the column type. After the final chromatography step, the resulting purity of the enzyme is >90% based on SDS-PAGE analysis. The enzyme was aliquoted and stored at −80° C.
HCVNS5B RdRp Enzyme Assay.
An on-bead solid phase homogeneous assay was used in a 384-well format to assess NS5B inhibitors (WangY-K, Rigat K, Roberts S, and Gao M (2006) Anal Biochem, 359: 106-111). The biotinylated oligo dT12 primer was captured on streptavidin-coupled imaging beads (GE, RPNQ0261) by mixing primer and beads in 1× buffer and incubating at room temperature for three hours. Unbound primer was removed after centrifugation. The primer-bound beads were resuspended in 3× reaction mix (20 mM Hepes buffer, pH 7.5, dT primer coupled beads, poly A template, ^3H-UTP, and RNAse inhibitor (Promega N2515)). Compounds were serially diluted 1:3 in DMSO and aliquoted into assay plates. Equal volumes (10 μL) of water, 3× reaction mix, and enzyme in 3× assay buffer (60 mM Hepes buffer, pH 7.5, 7.5 mM MgCl2, 7.5 mM KCl, 3 mM DTT, 0.03 mg/mL BSA, 6% glycerol) were added to the diluted compound on the assay plate. Final concentration of components in 384-well assay: 0.36 nM template, 15 nM primer, 0.29 μM ^3H-UTP (0.3 μCi), 1.6 U/μL RNAse inhibitor, 7 nM NS5B enzyme, 0.01 mg/mL BSA, 1 mM DTT, and 0.33 μg/μL beads, 20 mM Hepes buffer, pH 7.5, 2.5 mM MgCl2, 2.5 mM KCl, and 0.1% DMSO.
Reactions were allowed to proceed from 4 to 24 hours at 30° C. For 24 hour reactions, enzyme and inhibitors were pre-incubated for 24 hours before adding template and primer. Reactions were terminated by the addition of 50 mM EDTA (10 μL). After incubating for at least 15 minutes, plates were read on an Amersham LEADseeker multimodality imaging system.
IC50 values for compounds were determined using ten different [I]. IC50 values were calculated from the inhibition using the four-parameter logistic formula y=A+((B−A)/(1+((C/x)^D))), where A and B denote minimal and maximal % inhibition, respectively, C is the IC50, D is hill slope and x represents compound concentration.

## CNC(=O)c1c(-c2ccc(F)cc2)oc2ccc(-c3cc(C(=O)NC4(c5ncccn5)CC(OC)C4)ccc3C)c(F)c12 (single isomer, unassigned) [Example 10a, 4-Fluoro-2-(4-fluorophenyl)-5-(5-((3-methoxy-1-(pyrimidin-2-yl)cyclobutyl)carbamoyl)-2-methylphenyl)-N-methylbenzofuran-3-carboxamide]
[1]
  EC50: 30 nM
[2]
  IC50: 60 nM

## CCOc1cc2oc(-c3ccc(F)cc3)c(C(=O)NC)c2cc1-c1ccc(OC)c(C(=O)NC2(c3ncccn3)CC(OC(F)F)C2)c1 (single isomer, unassigned) [Example 66a, 5-(3-((3-(Difluoromethoxy)-1-(pyrimidin-2-yl)cyclobutyl)carbamoyl)-4-methoxyphenyl)-6-ethoxy-2-(4-fluorophenyl)-N-methylbenzofuran-3-carboxamide]
[1]; Hepatitis C virus, Huh-7, 72 h
  EC50: 4.05 nM
[2]
  IC50: 1.91 nM

## CNC(=O)c1c(-c2ccc(F)cc2)oc2cc(CCC(F)(F)F)c(-c3cccc(C(=O)NC4(c5ncccn5)CC(OC(F)(F)F)C4)c3)cc12 (single isomer, unassigned) [Example 45a, 2-(4-Fluorophenyl)-N-methyl-5-(3-((1-(pyrimidin-2-yl)-3-(trifluoromethoxy)cyclobutyl)carbamoyl)phenyl)-6-(3,3,3-trifluoropropyl)benzofuran-3-carboxamide]
[1]
  EC50: 20 nM
[2]
  IC50: 20 nM

## CNC(=O)c1c(-c2ccc(F)cc2)oc2ccc(-c3cc(C(=O)NC4(c5ncccn5)CC(O)C4)c(OC)cc3C)c(F)c12 (single isomer, unassigned) [Example 12b, 4-Fluoro-2-(4-fluorophenyl)-5-(5-((3-hydroxy-1-(pyrimidin-2-yl)cyclobutyl)carbamoyl)-4-methoxy-2-methylphenyl)-N-methylbenzofuran-3-carboxamide]
[1]
  EC50: 140 nM
[2]
  IC50: 210 nM

## CNC(=O)c1c(-c2ccc(F)cc2)oc2ccc(-c3cc(C(=O)NC4(c5ncccn5)CC(OC)(OC)C4)cc(F)c3C)c(F)c12 [Example 8, 5-(5-(3,3-Dimethoxy-1-(pyrimidin-2-yl)cyclobutylcarbamoyl)-3-fluoro-2-methylphenyl)-4-fluoro-2-(4-fluorophenyl)-N-methylbenzofuran-3-carboxamide]
[1]; Hepatitis C virus, Huh-7, 72 h
  EC50: 20 nM
[2]
  IC50: 40 nM

## CNC(=O)c1c(-c2ccc(F)cc2)oc2ccc(-c3cc(C(=O)NC4(c5ncccn5)CC(OC)C4)cc(F)c3C)c(F)c12 (single isomer, unassigned) [Example 11b, 4-Fluoro-5-(3-fluoro-5-((3-methoxy-1-(pyrimidin-2-yl)cyclobutyl)carbamoyl)-2-methylphenyl)-2-(4-fluorophenyl)-N-methylbenzofuran-3-carboxamide]
[1]
  EC50: 4.56 nM
[2]
  IC50: 30 nM

## CCCc1cc2oc(-c3ccc(F)cc3)c(C(=O)NC)c2cc1-c1cc(C(=O)NC2(C)CC(OC(F)F)C2)c(OC)cc1C (single isomer, unassigned) [Example 57b, 5-(5-((3-(Difluoromethoxy)-1-methylcyclobutyl)carbamoyl)-4-methoxy-2-methylphenyl)-2-(4-fluorophenyl)-N-methyl-6-propylbenzofuran-3-carboxamide]
[1]
  EC50: 70 nM

## CCN(c1cc2oc(-c3ccc(F)cc3)c(C(=O)NC)c2c(F)c1-c1ccc(OC)c(C(=O)NC2(c3ncccn3)CC(F)C2)c1)S(C)(=O)=O (centres unmarked) [Example 26, 6-(N-ethylmethylsulfonamido)-4-fluoro-5-(3-((3-fluoro-1-(pyrimidin-2-yl)cyclobutyl)carbamoyl)-4-methoxyphenyl)-2-(4-fluorophenyl)-N-methylbenzofuran-3-carboxamide]
[1]; Hepatitis C virus, Huh-7, 72 h
  EC50: 2.25 nM

## CCCc1cc2oc(-c3ccc(F)cc3)c(C(=O)NC)c2cc1-c1cc(C(=O)NC2(c3ncccn3)CC(OC(F)F)C2)c(OC)cc1C (centres unmarked) [Example 39, 5-(5-((3-(Difluoromethoxy)-1-(pyrimidin-2-yl)cyclobutyl)carbamoyl)-4-methoxy-2-methylphenyl)-2-(4-fluorophenyl)-N-methyl-6-propylbenzofuran-3-carboxamide]
[1]; Hepatitis C virus, Huh-7, 72 h
  EC50: 20 nM

## CCCc1cc2oc(-c3ccc(F)cc3)c(C(=O)NC)c2cc1-c1ccc(F)c(C(=O)NC2(C)CC(OC(F)F)C2)c1 (single isomer, unassigned) [Example 61a, 5-(3-((3-(Difluoromethoxy)-1-methylcyclobutyl)carbamoyl)-4-fluorophenyl)-2-(4-fluorophenyl)-N-methyl-6-propylbenzofuran-3-carboxamide]
[1]; Hepatitis C virus, Huh-7, 72 h
  EC50: 20 nM

## CNC(=O)c1c(-c2ccc(F)cc2)oc2cc(CCC(F)(F)F)c(-c3cccc(C(=O)NC4(C)CC(OC(F)F)C4)c3)cc12 (single isomer, unassigned) [Example 59a, 5-(3-((3-(Difluoromethoxy)-1-methylcyclobutyl)carbamoyl)phenyl)-2-(4-fluorophenyl)-N-methyl-6-(3,3,3-trifluoropropyl)benzofuran-3-carboxamide]
[1]; Hepatitis C virus, Huh-7, 72 h
  EC50: 30 nM

## CCCc1cc2oc(-c3ccc(F)cc3)c(C(=O)NC)c2cc1-c1ccc(F)c(C(=O)NC2(C)CC(OC(F)F)C2)c1 (single isomer, unassigned) [Example 61b, 5-(3-((3-(Difluoromethoxy)-1-methylcyclobutyl)carbamoyl)-4-fluorophenyl)-2-(4-fluorophenyl)-N-methyl-6-propylbenzofuran-3-carboxamide]
[1]
  EC50: 20 nM

## CCCc1cc2oc(-c3ccc(F)cc3)c(C(=O)NC)c2cc1-c1cccc(C(=O)NC2(C)CC(OC(F)F)C2)c1 (single isomer, unassigned) [Example 55a, 5-(3-((3-(Difluoromethoxy)-1-methylcyclobutyl)carbamoyl)phenyl)-2-(4-fluorophenyl)-N-methyl-6-propylbenzofuran-3-carboxamide]
[1]; Hepatitis C virus, Huh-7, 72 h
  EC50: 30 nM

## CCOc1cc2oc(-c3ccc(F)cc3)c(C(=O)NC)c2cc1-c1cccc(C(=O)NC2(c3ncccn3)CC(OC(F)F)C2)c1 (single isomer, unassigned) [Example 67a, 5-(3-((3-(Difluoromethoxy)-1-(pyrimidin-2-yl)cyclobutyl)carbamoyl)phenyl)-6-ethoxy-2-(4-fluorophenyl)-N-methylbenzofuran-3-carboxamide]
[1]
  EC50: 30 nM
